According to patent publication US20240197706A1, “METHODS OF IMPROVING THE PHARMACOKINETICS OF MIGALASTAT” (Amicus Therapeutics, Inc., priority 2022, published 2024):
Read-outs that look alike come from different tables or passages of the source.

Key:
[1] = AT1001-045 study: plasma migalastat bioavailability of 150 mg migalastat HCl capsule with caffeine and sweetener beverages relative to water; format: in vivo, human (healthy subjects); details: for AUC0-t Ratio / AUC0-∞ Ratio / Cmax Ratio: percent scale; for Cmax / AUC(0-t) / AUC(0-inf) / Tmax / half-life: both sexes, human, plasma, po, 150 mg; for Cmax: read-out: Cmax GeoMean; for AUC(0-t): read-out: AUC0-t GeoMean; for AUC(0-inf): read-out: AUC0-∞ GeoMean; for Tmax: read-out: tmax Median; for half-life: read-out: t1/2 Mean (converted)
Procedure: The example describes the AT1001-045 study, which was an open-label study of the bioavailability, safety and tolerability of migalastat in combination with caffeine and sweeteners.
The primary objective was to evaluate plasma migalastat bioavailability of the 150 mg migalastat HCl capsule in a caffeinated beverage, a sucrose beverage, a combination caffeinated and sucrose beverage, an aspartame artificial sweetener beverage, and an acesulfame potassium artificial sweetener beverage relative to water in healthy subjects.
The primary endpoints were ANOVA comparisons of interest between each test treatment and reference treatment for Cmax, AUC0-t and AUC0-∞. The comparisons of interest were point estimate ratios and lower/upper 90% confidence intervals.
This was a single-center, single dose, randomized, open-label, 6-way crossover study. Each subject received a single oral dose of migalastat HCl 150 mg for each of 6 periods.
In randomized sequence, each subject received a 150 mg migalastat HCl capsule with a caffeinated beverage, a sucrose drink, a combination caffeinated and sucrose beverage, an aspartame artificial sweetener drink, an acesulfame potassium artificial sweetener drink, or water.
All study treatments were administered in the fasted condition (overnight+4 hours post-dose).
Each single dose administration was followed by a 72-hour PK sampling period which also served as the between-treatment washout interval.
Appropriate migalastat exposure ratios (Cmax and AUC) with corresponding 90% confidence intervals will be used to address the comparisons of interest: • Caffeine (test) vs. water (reference) • Sucrose (test) vs. water (reference) • Caffeine+Sucrose (test) vs. water (reference) • Aspartame (test) vs. water (reference) • Acesulfame K (test) vs. water (reference)
• Study Population: male and female healthy subjects 18 to 45 years of age. • Sample Size: 20 subjects balanced for gender. • Dose: A single 150 mg capsule of migalastat hydrochloride, provided as GALAFOLD®.
The following test treatments were prepared: • Caffeinated beverage: 8 oz of caffeinated tea; nothing added; administered warm (40 to 50 degrees C.) and consumed within 10 minutes • Sucrose drink: 8 oz sucrose solution prepared with 26 grams sucrose, chilled before drug administration, and consumed within 10 minutes • Equivalent to sucrose content in one 8 oz serving of cane sugar-containing Coca-Cola® • Caffeinated+Sucrose drink: 8 oz caffeinated/sucrose beverage, chilled before drug administration, and consumed within 10 minutes (e.g., Jolt®) • Aspartame: 8 oz aspartame solution prepared with 125 mg aspartame, chilled before drug administration, and consumed within 10 minutes • Equivalent to aspartame content in one 8 oz can of Diet Coke® • Acesulfame K: 8 oz acesulfame K solution prepared with 30 mg acesulfame K, chilled before drug administration, and consumed within 10 minutes • Equivalent to acesulfame K content in one 8 oz can of Diet Coke® or Coca-Cola® Zero Sugar

[2] = as above; format: in vivo, human (healthy subjects); details: 280 mL of coffee containing approximately 190 mg caffeine at the time of dosing, compared to water
[3] = taken with food; cited from earlier work
[4] = Acesulfame K (test) vs. water (reference)
[5] = Aspartame (test) vs. water (reference)
[6] = Caffeine (test) vs. water (reference)
[7] = Caffeine + Sucrose (test) vs. water (reference)
[8] = Sucrose (test) vs. water (reference)
[9] = single oral 150 mg migalastat HCl capsule, fasted, with Acesulfame K drink
[10] = single oral 150 mg migalastat HCl capsule, fasted, with Aspartame drink
[11] = single oral 150 mg migalastat HCl capsule, fasted, with Caffeine + Sucrose drink
[12] = single oral 150 mg migalastat HCl capsule, fasted, with Caffeine beverage
[13] = single oral 150 mg migalastat HCl capsule, fasted, with Sucrose drink
[14] = single oral 150 mg migalastat HCl capsule, fasted, with water (reference)

## OC[C@H]1NC[C@H](O)[C@@H](O)[C@H]1O [migalastat, (2R,3S,4R,5S)-2-(hydroxymethyl) piperdine-3,4,5-triol]
[1]; 280 mL of coffee containing approximately 190 mg caffeine at the time of dosing, compared to water
  mean reduction in AUC0-∞: 57%
[1]; [4]
  AUC0-t Ratio: 93.9
  AUC0-∞ Ratio: 96.1
  Cmax Ratio: 92.3
[1]; [5]
  AUC0-t Ratio: 104.9
  AUC0-∞ Ratio: 102.9
  Cmax Ratio: 103.3
[1]; [6]
  AUC0-t Ratio: 43.1
  AUC0-∞ Ratio: 45.8
  Cmax Ratio: 39.9
[1]; [7]
  AUC0-t Ratio: 46.9
  AUC0-∞ Ratio: 47.7
  Cmax Ratio: 45.9
[1]; [8]
  AUC0-t Ratio: 92.2
  AUC0-∞ Ratio: 91.8
  Cmax Ratio: 95.3
[1]; single oral 150 mg migalastat HCl capsule, fasted, healthy subjects, with water (reference)
  Cmax: 1330 ng/mL
[1]; [9]
  AUC(0-t): 8120 ng·h/mL
  AUC(0-inf): 8640 ng·h/mL
  Cmax: 1220 ng/mL
  Tmax: 4 h
  AUC0-∞ GeoMean: 8621 ng·h/mL
  t1/2 Mean: 7.2 h
[1]; [10]
  AUC(0-t): 9080 ng·h/mL
  AUC(0-inf): 9080 ng·h/mL
  Cmax: 1370 ng/mL
  half-life: 486 min
  Tmax: 4 h
  AUC0-∞ GeoMean: 9043 ng·h/mL
[1]; [11]
  AUC(0-t): 4050 ng·h/mL
  AUC(0-inf): 4270 ng·h/mL
  Cmax: 611 ng/mL
  half-life: 528 min
  Tmax: 3 h
[1]; [12]
  AUC(0-t): 3720 ng·h/mL
  AUC(0-inf): 4100 ng·h/mL
  Cmax: 529 ng/mL
  half-life: 612 min
  Tmax: 3 h
[1]; [13]
  AUC(0-t): 7960 ng·h/mL
  AUC(0-inf): 8030 ng·h/mL
  Cmax: 1260 ng/mL
  half-life: 468 min
  Tmax: 3 h
  AUC0-∞ GeoMean: 8008 ng·h/mL
[1]; [14]
  AUC(0-t): 8620 ng·h/mL
  AUC(0-inf): 8610 ng·h/mL
  half-life: 450 min
  Tmax: 4 h
  AUC0-∞ GeoMean: 8570 ng·h/mL
[1]; coffee or sweetened beverages in comparison to water
  rate of absorption (tmax) effect: not affected
[1]; sucrose vs water
  mean difference in AUC (decrease): 8%
[1]; with acesulfame K
  bioequivalence to water (90% CI within 80% to 125%): bioequivalent to water
[1]; with aspartame
  bioequivalence to water (90% CI within 80% to 125%): bioequivalent to water
[1]; with sucrose
  bioequivalence to water (90% CI within 80% to 125%): very close to bioequivalent
[2]
  mean reduction in Cmax: 60%
[3]
  decrease in migalastat exposure: approximately 40%
